The subject of this assay is rat aortic ring microvessel formation. Nature of the assay: rat aortic ring model of angiogenesis (microvessel formation). The format is cell-based. As to conditions: 192 h; in vitro rat aortic rings, microvessel area after eight days in culture, compared to vehicle-treated control rings; read-out: IC50 (inhibition of microvessel formation, angiogenesis inhibitory activity). As to the method: Angiogenesis inhibitory activity was measured in vitro using the rat aortic ring model of angiogenesis as described by Nicosia, R. F. and Ottinetti in “Laboratory Investigation”, vol. 63, p. 115, 1990. The ability of compounds to inhibit microvessel formation was compared to vehicle-treated control rings. Quantitation (microvessel area) following eight days in culture was performed using an image analysis system, consisting of a light microscope, a CCD camera and an automated, custom-designed image analysis program as described by Nissanov, J., Tuman, R. W., Gruver, L. M., and Fortunato, J. M. in “Laboratory Investigation”, vol 73 (#5), p. 734, 1995. Compounds were tested at several concentrations for determination of inhibitory potency (IC50's).

Usually IC50 stands for the midpoint of a concentration-inhibition curve. Regarding `Cc1nsc(-c2ccc(N3CCN(c4cccc(C(F)(F)F)c4)CC3)cc2)n1` [Compound 2, 1-[4-(3-methyl-1,2,4-thiadiazol-5-yl)phenyl]-4-[3-(trifluoromethyl)phenyl]piperazine], the IC50 was less than 10 nM. `Cc1nsc(-c2ccc(N3CCN(c4cccc(C(F)(F)F)c4)CC3)nc2)n1` [Compound 6, 1-[5-(3-methyl-1,2,4-thiadiazol-5-yl)-2-pyridinyl]-4-[3-(trifluoromethyl)-phenyl]-piperazine]: the 50% inhibitory concentration (IC50) was less than 10 nM.

Source of the values: US7208503B2, “Angiogenesis inhibiting 5-substituted-1,2,4-thiadiazolyl derivatives” (Janssen Pharmaceutica N.V., priority 2000, dated 2007).
